Measured values: US9115133B2, “Substituted fused tricyclic compounds, compositions and medicinal applications thereof” (Advinus Therapeutics Limited, priority 2011, dated 2015)

Columns and labels:
Type in all cases: biochemical
Settings in all cases: 200 μg/ml Poly Glu-Tyr (4:1), ATP 1 uM, 90 min room temperature, luminescence
[1] = target: T1, Recombinant JAK1 (Amino acids 850-1154) (Homo sapiens, UniProt P23458); experiment: Kinase-Glo Luminescent Kinase Assay, recombinant JAK1
T1 construct: Recombinant JAK1 (Amino acids 850-1154; NM_002227.2); made in house; host or cells: baculovirus expression system (Bac-to-Bac)
In short: (§1)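 Baculovirus-expressed kinase domains were pre-incubated 5 min with compound (1% DMSO), then reacted 90 min at room temperature with 200 μg/ml poly Glu-Tyr (4:1) and 1 uM ATP in 50 mM HEPES pH 7.4, 5 mM MgCl2. Remaining ATP was read by Kinase-Glo luminescence. IC50 came from four-parameter logistic fits.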

[2] = target: T2, Recombinant JAK3 (Amino acids 781-1124) (Homo sapiens, UniProt P52333); experiment: Kinase-Glo Luminescent Kinase Assay, recombinant JAK3
T2 construct: JAK3 (Amino acids 781-1124; NM_000215.3); made in house; host or cells: baculovirus expression system (Bac-to-Bac)
In short: as §1

[3] = target: T3, Recombinant JAK2 (Amino acids 808-1132) (Homo sapiens, UniProt O60674); experiment: Kinase-Glo Luminescent Kinase Assay, recombinant JAK2
T3 construct: JAK2 (Amino acids 808-1132; NM_004972.3); made in house; host or cells: baculovirus expression system (Bac-to-Bac)
Text: Recombinant JAK1 (Amino acids 850-1154; NM_002227.2), JAK2 (Amino acids 808-1132; NM_004972.3) and JAK3 (Amino acids 781-1124; NM_000215.3) used in the studies were expressed using Invitrogen's Bac-to-Bac baculovirus expression system according to manufacturer's instructions. Adenosine 5′-triphosphate was obtained from Sigma Aldrich chemicals (Cat # A7699). Poly Glu-Tyr (4:1) sodium salt was obtained from Sigma Aldrich (Cat # P0275), Kinase Glo® Luminescent Kinase assay kit was obtained from Promega (Cat # V6713) Kinase activity was assessed by Promega Kinase-Glo® Luminescent Kinase Assay kit using 200 μg/ml Poly Glu-Tyr (4:1) as substrate and ATP at 1 uM concentration. The reactions were carried out in 384 well plates in total reaction volume of 20 uL. Reaction mixtures contained 50 mM HEPES pH 7.4, 5 mM MgCl2, 1 mM DTT, 0.01% BSA, 0.01% Tween 20. Kinase was pre-incubated with compounds or 1% DMSO for 5 min before addition of substrate and ATP to check for inhibition. Kinase reactions were carried out at room temperature for 90 min. The reactions were stopped by adding 5 μl of Kinase Glo® reagent & 10 μl of reaction mixture followed by measuring luminescence. The luminescent signal is correlated with the amount of ATP present at the end of kinase reaction and is inversely correlated with the amount of kinase activity. For each data point, % inhibition is calculated based on uninhibited reaction (without compound) which is considered as 100% activity over no enzyme or substrate controls. Dose response data is then fit using a four parameter logistic equation using Graph-pad Prism 5 software to determine inhibition constant 50 (IC50).

T3 sequence (O60674 808-1132): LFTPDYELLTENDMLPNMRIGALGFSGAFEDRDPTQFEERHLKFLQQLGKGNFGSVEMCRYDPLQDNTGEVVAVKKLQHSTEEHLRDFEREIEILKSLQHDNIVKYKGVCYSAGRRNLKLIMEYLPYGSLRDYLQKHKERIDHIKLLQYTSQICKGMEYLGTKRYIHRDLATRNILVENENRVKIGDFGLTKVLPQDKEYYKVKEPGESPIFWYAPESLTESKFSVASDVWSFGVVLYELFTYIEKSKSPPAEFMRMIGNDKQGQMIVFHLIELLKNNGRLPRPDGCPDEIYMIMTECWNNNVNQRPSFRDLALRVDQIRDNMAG
T2 sequence (P52333 781-1124): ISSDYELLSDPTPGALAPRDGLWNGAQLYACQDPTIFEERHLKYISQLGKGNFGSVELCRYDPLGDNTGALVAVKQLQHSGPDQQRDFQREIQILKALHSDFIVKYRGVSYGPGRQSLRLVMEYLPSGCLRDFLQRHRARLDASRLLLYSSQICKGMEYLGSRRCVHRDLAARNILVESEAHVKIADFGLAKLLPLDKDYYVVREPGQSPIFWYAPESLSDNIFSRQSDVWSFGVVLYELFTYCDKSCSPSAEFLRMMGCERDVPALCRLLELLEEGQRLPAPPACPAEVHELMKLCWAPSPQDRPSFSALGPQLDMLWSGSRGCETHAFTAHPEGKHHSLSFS
T1 sequence (P23458 850-1154): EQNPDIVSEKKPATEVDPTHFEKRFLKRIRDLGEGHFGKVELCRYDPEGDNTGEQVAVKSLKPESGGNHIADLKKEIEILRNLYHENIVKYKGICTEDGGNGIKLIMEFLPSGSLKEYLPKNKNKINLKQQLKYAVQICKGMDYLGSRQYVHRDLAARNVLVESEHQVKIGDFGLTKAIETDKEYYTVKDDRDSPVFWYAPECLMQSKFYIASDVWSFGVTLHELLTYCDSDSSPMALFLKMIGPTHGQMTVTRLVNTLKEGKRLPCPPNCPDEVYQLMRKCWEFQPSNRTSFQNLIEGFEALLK

SMILES	IC50 [1]	IC50 [2]	IC50 [3]
N#CCC(=O)N1CCCC(c2ncnc3cnc4[nH]ccc4c23)C1 (stereo not drawn) [Ex. 23, 3-Oxo-3-[3-(3H-3,4,6,8-tetraazacyclopenta[a]naphthalen-9-yl)-piperidin-1-yl]-propionitrile]	0.001 to 0.02 µM	0.001 to 0.02 µM	0.001 to 0.02 µM
N#CCC(=O)N1CCC[C@@H](c2ncnc3cnc4[nH]ccc4c23)C1 [Ex. 23A, (R)3-Oxo-3-[3-(3H-3,4,6,8-tetraazacyclopenta[a]naphthalen-9-yl)-piperidin-1-yl]-propionitrile]	> 0.02 µM	> 0.02 µM	> 0.02 µM
O=C(CC(F)(F)F)N1CCCC(c2ncnc3cnc4[nH]ccc4c23)C1 (stereo not drawn) [Ex. 24, 3,3,3-Trifluoro-1-[3-(3H-3,4,6,8-tetraazacyclopenta[a]naphthalen-9-yl)-piperidin-1-yl]-propan-1-one]	0.001 to 0.02 µM	> 0.02 µM	0.001 to 0.02 µM
O=C(CC(F)(F)F)N1CCC[C@@H](c2ncnc3cnc4[nH]ccc4c23)C1 [Ex. 24A, (R)3,3,3-Trifluoro-1-[3-(3H-3,4,6,8-tetraazacyclopenta[a]naphthalen-9-yl)-piperidin-1-yl]-propan-1-one]	> 0.02 µM	> 0.02 µM	> 0.02 µM
O=C(CC1CC1)N1CCCC(c2ncnc3cnc4[nH]ccc4c23)C1 (stereo not drawn) [Ex. 25, 2-Cyclopropyl-1-[3-(3H-3,4,6,8-tetraazacyclopenta[a]naphthalen-9-yl)-piperidin-1-yl]-ethanone]	0.001 to 0.02 µM	> 0.02 µM	> 0.02 µM
O=C(C1CCOC1)N1CCCC(c2ncnc3cnc4[nH]ccc4c23)C1 (stereo not drawn) [Ex. 26, [3-(3H-3,4,6,8-Tetraaza-cyclopenta[a]naphthalen-9-yl)-piperidin-1-yl]-(tetrahydro-furan-3-yl)-mathanone]	0.001 to 0.02 µM	> 0.02 µM	> 0.02 µM
CCC(=O)N1CCCC(c2ncnc3cnc4[nH]ccc4c23)C1 (stereo not drawn) [Ex. 27, 1-[3-(3H-3,4,6,8-Tetraaza-cyclopenta[a]naphthalen-9-yl)-piperidin-1-yl]-propan-1-one]	> 0.02 µM	> 0.02 µM	> 0.02 µM
CC(C)(C)C(=O)N1CCCC(c2ncnc3cnc4[nH]ccc4c23)C1 (stereo not drawn) [Ex. 28, 2,2-Dimethyl-1-[3-(3H-3,4,6,8-tetraaza-cyclopenta[a]naphthalen-9-yl)-piperidin-1-yl]-propan-1-one]	0.001 to 0.02 µM	> 0.02 µM	0.001 to 0.02 µM
O=C(C1CC1)N1CCCC(c2ncnc3cnc4[nH]ccc4c23)C1 (stereo not drawn) [Ex. 29, Cyclopropyl-[3-(3H-3,4,6,8-tetraaza-cyclopenta[a]naphthalen-9-yl)-piperidin-1-yl]-methanone]	> 0.02 µM	> 0.02 µM	> 0.02 µM
CC(C)CS(=O)(=O)N1CCCC(c2ncnc3cnc4[nH]ccc4c23)C1 (stereo not drawn) [Ex. 30, 9-[1-(2-Methyl-propane-1-sulfonyl)-piperidin-3-yl]-3H-3,4,6,8-tetraaza-cyclopenta[a]naphthalene]	> 0.02 µM	> 0.02 µM	> 0.02 µM
O=S(=O)(C1CC1)N1CCCC(c2ncnc3cnc4[nH]ccc4c23)C1 (stereo not drawn) [Ex. 31, 9-(1-Cyclopropanesulfonyl-piperidin-3-yl)-3H-3,4,6,8-tetraaza-cyclopenta[a]naphthalene]	> 0.02 µM	> 0.02 µM	> 0.02 µM
CC(C)NC(=O)N1CCCC(c2ncnc3cnc4[nH]ccc4c23)C1 (stereo not drawn) [Ex. 32, 3-(3H-3,4,6,8-Tetraaza-cyclopenta[a]naphthalen-9-yl)-piperidine-1-carboxylic acid isopropylamide]	> 0.02 µM	> 0.02 µM	> 0.02 µM
CC(C)/C(=N\C#N)N1CCCC(c2ccnc3cnc4[nH]ccc4c23)C1 (stereo not drawn) [Ex. 43, (E)-[2-methyl-1-[3-(3H-pyrrolo[3,2-f][1,7]naphthyridin-9-yl)-1-piperidyl]propylidene]cyanamide]	> 0.02 µM	0.001 to 0.02 µM	0.001 to 0.02 µM
